Results: ChEMBL document CHEMBL5143542, “Synthesis and biological studies of "Polycerasoidol" and "trans-δ-Tocotrienolic acid" derivatives as PPARα and/or PPARγ agonists” (Bioorg Med Chem, 2022)
Active and inactive are the calls of the source. No cut-off for these calls is given here.

Columns and labels:
Type in all cases: cell-based
[1] = target: T1, Peroxisome proliferator-activated receptor alpha (Homo sapiens) (UniProt Q07869); assay: Agonist activity at Gal4-fused human PPARalpha expressed in COS7 cells assessed as receptor transactivation at 10 uM measured after 24 hrs by luciferase/beta-galactosidase reporter gene assay relative to WY-14643; conditions: filed as agonist
T1 sequence (whole entry): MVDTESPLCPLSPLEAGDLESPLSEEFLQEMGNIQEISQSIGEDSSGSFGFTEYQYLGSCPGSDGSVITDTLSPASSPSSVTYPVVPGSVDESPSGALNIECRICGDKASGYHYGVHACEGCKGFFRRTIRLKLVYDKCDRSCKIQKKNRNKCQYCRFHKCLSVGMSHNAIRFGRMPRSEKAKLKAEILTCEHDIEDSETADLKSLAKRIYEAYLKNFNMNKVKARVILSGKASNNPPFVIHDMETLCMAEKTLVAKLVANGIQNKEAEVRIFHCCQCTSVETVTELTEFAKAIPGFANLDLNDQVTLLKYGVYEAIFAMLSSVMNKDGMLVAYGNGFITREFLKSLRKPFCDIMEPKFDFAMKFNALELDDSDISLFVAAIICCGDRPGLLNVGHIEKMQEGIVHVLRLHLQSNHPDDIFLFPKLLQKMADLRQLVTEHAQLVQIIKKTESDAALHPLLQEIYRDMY

[2] = target: T2, Peroxisome proliferator-activated receptor gamma (Homo sapiens, UniProt P37231); assay: (§1) Agonist activity at Gal4-fused human PPARgamma expressed in COS7 cells assessed as receptor transactivation at 10 uM measured after 24 hrs by luciferase/beta-galactosidase reporter gene assay relative to rosiglitazone; conditions: cos7, 24 h, 10 µM
T2 sequence (P37231 whole entry): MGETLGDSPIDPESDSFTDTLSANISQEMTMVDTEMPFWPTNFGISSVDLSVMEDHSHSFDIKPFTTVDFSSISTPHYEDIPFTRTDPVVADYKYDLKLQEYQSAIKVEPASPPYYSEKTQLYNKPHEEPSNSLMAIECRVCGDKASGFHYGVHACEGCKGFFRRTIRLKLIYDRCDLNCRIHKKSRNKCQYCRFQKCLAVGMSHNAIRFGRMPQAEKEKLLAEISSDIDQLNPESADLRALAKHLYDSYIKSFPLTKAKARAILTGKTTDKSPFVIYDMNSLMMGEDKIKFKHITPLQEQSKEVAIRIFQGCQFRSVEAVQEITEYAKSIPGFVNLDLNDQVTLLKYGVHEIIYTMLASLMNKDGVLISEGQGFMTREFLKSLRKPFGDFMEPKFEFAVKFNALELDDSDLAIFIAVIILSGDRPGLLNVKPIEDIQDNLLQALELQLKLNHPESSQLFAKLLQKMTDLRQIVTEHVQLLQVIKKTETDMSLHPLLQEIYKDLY

PPARgamma = target: T3, PPARgamma (Homo sapiens, UniProt P37231); assay: as §1; conditions: COS7 cells expressing Gal4-fused human PPARgamma, read-out: max activation
T3 sequence (P37231 whole entry): T2 sequence (P37231 whole entry)

[3] = target: T4, Peroxisome proliferator-activated receptor gamma (Homo sapiens) (UniProt P37231); assay: Partial agonist activity at Gal4-fused human PPARgamma expressed in COS7 cells assessed as receptor transactivation at 10 uM measured after 24 hrs by luciferase/beta-galactosidase reporter gene assay; conditions: filed as partial agonist
T4 sequence (whole entry): T2 sequence (P37231 whole entry)

| Activity [1] | max activation [1] [%] | Activity [3] | Structure (SMILES) | Activity [2] | Emax at 24 h, 10 µM (PPARgamma) [%] |
| --- | --- | --- | --- | --- | --- |
| Active |  |  | CCCOc1ccc2c(c1)CCC(C)(CC/C=C(\C)CC/C=C(\C)CC/C=C(\C)C(=O)OCC)O2 (stereo unspecified) | Active |  |
|  | 123 |  | CCOC(=O)CC/C(C)=C/CCC1(C)CCc2cc(OCc3ccccc3)ccc2O1 (stereo unspecified) |  | 38 |
| Active |  |  | CCCOc1ccc2c(c1)CCC(C)(CC/C=C(\C)CC/C=C(\C)CC/C=C(\C)C(=O)Nc1ccccc1)O2 (stereo unspecified) | Active |  |
| Active |  |  | C/C(=C\CCC1(C)CCc2cc(OCc3ccccc3)ccc2O1)CCC(=O)Nc1ccccc1 (stereo unspecified) | Active |  |
|  |  | Active | C/C(=C\CCC1(C)CCc2cc(OCc3ccccc3)ccc2O1)CC/C=C(\C)C(=O)Nc1ccccc1 (stereo unspecified) |  |  |
|  |  |  | CCCOc1ccc2c(c1)CCC(C)(CC/C=C(\C)CC/C=C(\C)C(=O)OCC)O2 (stereo unspecified) | Active |  |
| Active |  |  | CCCOc1ccc2c(c1)CCC(C)(CC/C=C(\C)CCC(=O)OCC)O2 (stereo unspecified) | Active |  |
| Active |  |  | CCCOc1ccc2c(c1)CCC(C)(CC/C=C(\C)CCC(=O)Nc1ccccc1)O2 (stereo unspecified) | Active |  |
|  | 107 |  | C/C(=C\CC[C@]1(C)CCc2cc(O)cc(C)c2O1)CC/C=C(\C)C(=O)O |  | 95 |
